This passage reports exposure and bioavailability results from patent US20100204487A1, “PROCESS FOR MAKING THIOPHENE CARBOXAMIDE DERIVATIVES” (priority 2007, published 2010).

Where a name gives a salt, the structure may show the parent alone.

For series [1] the following is noted: in vivo.
The nature of series [2]: pharmacokinetics / bioavailability of free acid and salts of the compound of Formula I. The following applies: free acid.

Regarding `Cc1sc(C)c(C(=O)NC2(c3ccc(C(=O)O)cc3)CC2)c1Cc1ccc(C(F)(F)F)cc1` [Et2NH salt, 4-{1-[({2,5-dimethyl-4-[4-(trifluoromethyl)benzyl]-3-thienyl}carbonyl)amino]cyclopropyl}benzoic acid diethylamine salt], in series [1], the exposure result was “doubled the exposure”. As for `Cc1sc(C)c(C(=O)NC2(c3ccc(C(=O)O)cc3)CC2)c1Cc1ccc(C(F)(F)F)cc1` [free acid of Formula I], the bioavailability entry in series [2] is “poorly bioavailable”.
